Laboratory results taken from US20160067246A1, “USE OF PHOSPHODIESTERASE 5A INHIBITORS FOR THE TREATMENT OF MUSCULAR DYSTROPHY” (CEDARS-SINAI MEDICAL CENTER, priority 2013, published 2016).
Values joined by “and” are separate entries in the source; they are usually repeats but may differ in a detail not shown here. Equal values may be shown once.

Legend:
Type in all cases: in vivo, human
[1] = system: boys with Duchenne muscular dystrophy (DMD); experiment: Exercise-induced hyperemia: brachial artery blood flow by Doppler ultrasound and hemodynamics, rest and post handgrip; set-up: key to BA velocity: mean blood velocity in cm/s; Heart rate: unit not given here
Procedure: Subjects were studied in the supine position. Heart rate was measured continuously by electrocardiography, and blood pressure measured by automated oscillometric sphygomanometry using a child's cuff ([…] Monitor 300 Series). Brachial artery mean blood velocity (MBV) was measured from the exercising arm using pulsed-Doppler ultrasonography (Siemens iE33). Data were acquired continuously with a 9-MHz probe with a 60° angle of insonation, placed on the skin surface distal to the axilla. The ultrasound gate was optimized to ensure complete insonation of the entire vessel cross-section with constant intensity. The Doppler audio signal was converted to a real-time flow velocity signal using a validated Doppler audio converter,^8B and recorded using a PowerLab data acquisition system (ADInstruments, CO). Brachial artery diameter was measured by B-mode imaging in triplicate at rest. […] Brachial artery blood flow was calculated as MBV (cm/s)·πr^2·60, where r is radius of the brachial artery. […] exercise was performed with a dynamometer ([…] Dynamometer modified by Stoelting). To determine maximal voluntary contraction (MVC), each subject was asked to grip the dynamometer as hard as possible. […] Vascular conductance was calculated as forearm blood flow divided by mean arterial pressure. […] Patients then crossed over 2 weeks later for the opposite drug. […] Patients were queried about potential side-effects throughout the study visit. Baseline characteristics of patients and controls were compared using Student's t test. Exercise-induced attenuation of reflex vasoconstriction (functional sympatholysis) was assessed by comparing the LBNP-induced AHbO2+MbO2 (% TLS) at rest versus the LBNP-induced decrease in ΔHbO2+MbO2 during handgrip. Group differences in ΔHbO2+MbO2 were assessed using a Student's t test. The drug treatment effect on LBNP-induced Δ·HbO2+MbO2 (% TLS) at rest versus the LBNP-induced decrease in ΔHbO2+MbO2 during handgrip was compared to baseline for each patient using a Student's t test. The group difference in the % Δ in brachial artery blood flow was assessed using a student's t test. The drug treatment effect on the % Δ in brachial artery blood flow was compared using a student's t test. All analyses were performed in SigmaPlot. Data are expressed as mean±SEM, unless otherwise specified.

[2] = system: boys with Duchenne muscular dystrophy (DMD); experiment: Safety data / side-effects of PDE5 inhibitors in boys with DMD
Procedure: Subjects were studied in the supine position. Heart rate was measured continuously by electrocardiography, and blood pressure measured by automated oscillometric sphygomanometry using a child's cuff (Welch Allyn Vital Signs Monitor 300 Series).
Patients received 0.5 mg/kg of oral sildenafil or tadalafil on day 1, followed by 1.0 mg/kg of sildenafil or tadalafil on day 2. Patients then crossed over 2 weeks later for the opposite drug. Experiments were performed 1 hour (sildenafil) or 3 hours (tadalafil) after oral treatment to match the experiment with the peak blood level. Patients were queried about potential side-effects throughout the study visit.

[3] = system: patients with Becker muscular dystrophy (BMD); experiment: Functional sympatholysis: LBNP-induced decrease in forearm muscle oxygenation (NIR spectroscopy) at rest vs handgrip, tadalafil acute crossover trial
Procedure: Forearm muscle oxygenation was measured with near-infrared (NIR) spectroscopy, which is based on the principle that laser light with wavelengths in the 700-900 nm range easily penetrates skeletal muscle, and is absorbed by the iron-porphyrin moieties in hemoglobin and myoglobin. Changes in NIR light absorption are proportional to changes in the relative concentrations of oxygenated hemoglobin and myoglobin (HbO2 and MbO2). Because of their nearly identical absorption spectra, individual contributions of HbO2 and MbO2 cannot be determined. The NIR signals reflect changes in oxygenation occurring mainly in the microvasculature, because vessels greater than one millimeter in diameter are maximal absorbers of photons due to the high extinction coefficient of blood. Thus, NIR spectroscopy provides continuous measurement of the adequacy of tissue oxygen delivery relative to its use. […] Changes in forearm tissue oxygenation were expressed as a percentage of […] exercise was performed using a dynamometer ([…] Dynamometer modified by Stoelting, Wood Dale, Ill.). […] The pressure in the chamber was measured by a Statham transducer (Gould Inc., Oxnard, Calif.). […] Reflex vasoconstriction was measured as the LBNP-induced decrease in forearm muscle oxygenation by NIR spectroscopy; this approach provides a valid measure of reflex neurogenic vasoconstriction under these conditions (13). The BP, heart rate, handgrip force, and NIR signals were recorded in response to two minutes of LBNP applied at rest and during the third to fifth minutes of the seven-minute exercise period. […] Patients were queried about potential tadalafil-specific side-effects both for safety monitoring and to assess whether blinding was maintained. tadalafil blood levels were measured using high performance liquid chromatography/tandem mass spectrometry (NMS Labs Willow Grove, Pa.). […] Exercise-induced attenuation of reflex vasoconstriction (functional sympatholysis) was assessed by comparing the LBNP-induced AHbO2+MbO2 (% TLS) at rest vs. the LBNP-induced decrease in AHbO2+MbO2 during handgrip. […]

CN1CC(=O)N2[C@H](c3ccc4c(c3)OCO4)c3[nH]c4ccccc4c3C[C@@H]2C1=O [tadalafil]
BA VC (vascular conductance) ([1]; 0.5 mg/kg, Post-exercise): 2.6 ± 0.4 ml/min/mmHg
BA blood flow ([1]; 0.5 mg/kg, Post-exercise): 184 ± 24 mL/min
BA velocity ([1]; 0.5 mg/kg, Post-exercise): 38 ± 5
Heart rate ([1]; 0.5 mg/kg, Post-exercise): 94 ± 3
MAP ([1]; 0.5 mg/kg, Post-exercise): 72 ± 2 mmHg
BA VC (vascular conductance) ([1]; 0.5 mg/kg, Rest): 1.7 ± 0.3 ml/min/mmHg
BA blood flow ([1]; 0.5 mg/kg, Rest): 118 ± 15 mL/min
BA velocity ([1]; 0.5 mg/kg, Rest): 26 ± 4
Heart rate ([1]; 0.5 mg/kg, Rest): 91 ± 3
MAP ([1]; 0.5 mg/kg, Rest): 74 ± 3 mmHg
BA VC (vascular conductance) ([1]; 1.0 mg/kg, Post-exercise): 2.5 ± 0.3 ml/min/mmHg
BA blood flow ([1]; 1.0 mg/kg, Post-exercise): 170 ± 17 mL/min
BA velocity ([1]; 1.0 mg/kg, Post-exercise): 35 ± 4
Heart rate ([1]; 1.0 mg/kg, Post-exercise): 92 ± 4
MAP ([1]; 1.0 mg/kg, Post-exercise): 71 ± 3 mmHg
BA VC (vascular conductance) ([1]; 1.0 mg/kg, Rest): 1.5 ± 0.3 ml/min/mmHg
BA blood flow ([1]; 1.0 mg/kg, Rest): 104 ± 14 mL/min
BA velocity ([1]; 1.0 mg/kg, Rest): 21 ± 3
Heart rate ([1]; 1.0 mg/kg, Rest): 91 ± 3
MAP ([1]; 1.0 mg/kg, Rest): 71 ± 2 mmHg
duration of (penile) erection in an individual patient ([2]; higher dose 1.0 mg/kg): 4 h
duration of (penile) erection in an individual patient ([2]; low dose 0.5 mg/kg, 0.5 mg/kg): > 4 h and 3 h and 6 h
attenuation of the reflex (LBNP) decrease in muscle oxygenation during handgrip ([3]; 10 BMD patients, single 20 mg oral tadalafil, >=3 h after dose): 52±12%
LBNP-induced ΔHbO2+MbO2 (% TLS) at rest ([3]; BMD patients, 20 mg tadalafil, at rest): −17±2%
LBNP-induced ΔHbO2+MbO2 (% TLS) during handgrip ([3]; BMD patients, 20 mg tadalafil, during handgrip 20% MVC): −9±2%
